The NIST ThermoML archive (doi:10.1021/je401026a)
± gives the expanded uncertainty stated by the source.

Conditions: 298 K; Liquid; Gas chromatography

Structure (SMILES)	vapor or sublimation pressure
CCCCC(CC)COP(=O)(Oc1ccccc1)Oc1ccccc1 (stereo unspecified) [2-ethylhexyl diphenyl phosphate]	8.9e-08 ± 6.3e-08 kPa
Cc1ccc(OP(=O)(Oc2ccc(C)cc2)Oc2ccc(C)cc2)cc1 [phosphoric acid, tri-p-cresyl ester]	1.1e-08 ± 1.2e-08 kPa
Cc1ccccc1OP(=O)(Oc1ccccc1C)Oc1ccccc1C [tri-2-tolyl phosphate]	5.1e-08 ± 2.6e-08 kPa
Cc1cccc(OP(=O)(Oc2cccc(C)c2)Oc2cccc(C)c2)c1 [tri-m-tolyl phosphate]	2.1e-08 ± 1.8e-08 kPa
O=P(Oc1ccccc1)(Oc1ccccc1)Oc1ccccc1 [triphenyl phosphate]	2.7e-07 ± 2e-07 kPa
O=P(OC(CCl)CCl)(OC(CCl)CCl)OC(CCl)CCl [tris(1,3-dichloro-2-propanol) phosphate]	4.1e-07 ± 2.8e-07 kPa
CC(CCl)OP(=O)(OC(C)CCl)OC(C)CCl (stereo unspecified) [tris(1-chloro-2-propyl) phosphate]	3.5e-05 ± 1.7e-05 kPa
CC(C)c1ccccc1OP(=O)(Oc1ccccc1C(C)C)Oc1ccccc1C(C)C [tris(2-(1-methylethyl)-phenol) phosphate]	6e-09 ± 9e-09 kPa
CCCCOCCOP(=O)(OCCOCCCC)OCCOCCCC [tris(2-butoxyethyl) phosphate]	4.9e-08 ± 3.8e-08 kPa
O=P(OCCCl)(OCCCl)OCCCl [tris(2-chloroethyl) phosphate]	4.8e-05 ± 2.2e-05 kPa
CCCCC(CC)COP(=O)(OCC(CC)CCCC)OCC(CC)CCCC (stereo unspecified) [tris(2-ethylhexyl) phosphate]	2.1e-08 ± 1.8e-08 kPa
